Measurements reported in ChEMBL document CHEMBL4507261, “Data for DCP probe A-192621” (2021).

What was measured:
[1] = biological target: Mitogen-activated protein kinase 4 (Homo sapiens) (UniProt P31152); conditions: Compound concentration 1000.0 nM
[2] = biological target: Muscarinic acetylcholine receptor M1 (Homo sapiens) (UniProt P11229); experiment: M1 (h) Eurofins-Cerep binding assay; design: ligand concentration 2 nM; conditions: filed as antagonist, Compound concentration 10.0 uM
[3] = biological target: Cyclin-dependent kinase 11B (Homo sapiens) (UniProt P21127); conditions: Compound concentration 1000.0 nM
[4] = biological target: Serine/threonine-protein kinase 17A (Homo sapiens) (UniProt Q9UEE5); conditions: Compound concentration 1000.0 nM
[5] = biological target: Serine/threonine-protein kinase WNK1 (Homo sapiens) (UniProt Q9H4A3); conditions: Compound concentration 1000.0 nM
[6] = biological target: Macrophage colony-stimulating factor 1 receptor (Homo sapiens) (UniProt P07333); conditions: Compound concentration 1000.0 nM
[7] = biological target: Leucine-rich repeat serine/threonine-protein kinase 2 (Homo sapiens) (UniProt Q5S007); conditions: Compound concentration 1000.0 nM
[8] = biological target: Serine/threonine-protein kinase 24 (Homo sapiens) (UniProt Q9Y6E0); conditions: Compound concentration 1000.0 nM
[9] = test system: Phosphatidylinositol 4,5-bisphosphate 3-kinase catalytic subunit alpha isoform (Homo sapiens), P42336 [E545A]; conditions: Compound concentration 1000.0 nM
[10] = biological target: Tyrosine-protein kinase FRK (Homo sapiens) (UniProt P42685); conditions: Compound concentration 1000.0 nM
[11] = test system: Tyrosine-protein kinase ABL1 (Homo sapiens), P00519 [E255K]; conditions: Compound concentration 1000.0 nM
[12] = biological target: T1, Alpha-1B adrenergic receptor (Homo sapiens) (UniProt P35368); experiment: Alpha1B (h) Eurofins-Cerep binding assay; conditions: filed as antagonist, Compound concentration 10.0 uM
T1 sequence (whole entry): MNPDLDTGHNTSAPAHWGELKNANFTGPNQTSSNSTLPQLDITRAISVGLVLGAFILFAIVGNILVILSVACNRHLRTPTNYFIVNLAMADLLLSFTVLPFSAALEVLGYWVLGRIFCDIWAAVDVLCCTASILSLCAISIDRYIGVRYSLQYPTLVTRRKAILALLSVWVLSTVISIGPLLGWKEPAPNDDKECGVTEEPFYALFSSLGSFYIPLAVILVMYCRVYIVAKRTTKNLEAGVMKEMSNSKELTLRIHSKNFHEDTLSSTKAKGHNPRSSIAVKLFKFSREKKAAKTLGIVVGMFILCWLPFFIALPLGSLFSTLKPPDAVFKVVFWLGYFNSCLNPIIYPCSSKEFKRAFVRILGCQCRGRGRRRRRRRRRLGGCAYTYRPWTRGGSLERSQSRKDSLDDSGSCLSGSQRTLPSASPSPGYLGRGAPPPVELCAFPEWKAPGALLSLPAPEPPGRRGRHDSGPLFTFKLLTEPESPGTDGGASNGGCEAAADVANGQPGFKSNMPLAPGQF

[13] = biological target: Tyrosine-protein kinase BTK (Homo sapiens) (UniProt Q06187); conditions: Compound concentration 1000.0 nM
[14] = biological target: G protein-coupled receptor kinase 4 (Homo sapiens) (UniProt P32298); conditions: Compound concentration 1000.0 nM
[15] = biological target: Serine/threonine-protein kinase WNK4 (Homo sapiens) (UniProt Q96J92); conditions: Compound concentration 1000.0 nM
[16] = biological target: Serine/threonine-protein kinase SIK3 (Homo sapiens) (UniProt Q9Y2K2); conditions: Compound concentration 1000.0 nM
[17] = biological target: P2X receptor (Rattus norvegicus) (UniProt P51579+P49653+P51578+Q64663+P47824+P51577+P49654); experiment: P2X Eurofins-Cerep binding assay; assay type: protein assay; design: ligand concentration 3 nM; conditions: filed as agonist, Compound concentration 10.0 uM
[18] = biological target: Serine/threonine-protein kinase haspin (Homo sapiens) (UniProt Q8TF76); conditions: Compound concentration 1000.0 nM
[19] = test system: Tyrosine-protein kinase ABL1 (Homo sapiens), P00519 [H396P]; conditions: Compound concentration 1000.0 nM
[20] = biological target: Misshapen-like kinase 1 (Homo sapiens) (UniProt Q8N4C8); conditions: Compound concentration 1000.0 nM
[21] = test system: Receptor-type tyrosine-protein kinase FLT3 (Homo sapiens), P36888 [N841I]; conditions: Compound concentration 1000.0 nM
[22] = biological target: Cyclin-dependent kinase-like 1 (Homo sapiens) (UniProt Q00532); conditions: Compound concentration 1000.0 nM
[23] = biological target: Sulfonylurea receptors; K-ATP channels (Rattus norvegicus) (UniProt Q63563+P70673+Q63664+Q09429); experiment: KATP channel Eurofins-Cerep binding assay; assay type: protein-complex assay; conditions: filed as antagonist, Compound concentration 10.0 uM
[24] = biological target: T2, Alpha-2A adrenergic receptor (Homo sapiens) (UniProt P08913); experiment: Alpha2A (h) Eurofins-Cerep binding assay; conditions: filed as antagonist, Compound concentration 10.0 uM
T2 sequence (whole entry): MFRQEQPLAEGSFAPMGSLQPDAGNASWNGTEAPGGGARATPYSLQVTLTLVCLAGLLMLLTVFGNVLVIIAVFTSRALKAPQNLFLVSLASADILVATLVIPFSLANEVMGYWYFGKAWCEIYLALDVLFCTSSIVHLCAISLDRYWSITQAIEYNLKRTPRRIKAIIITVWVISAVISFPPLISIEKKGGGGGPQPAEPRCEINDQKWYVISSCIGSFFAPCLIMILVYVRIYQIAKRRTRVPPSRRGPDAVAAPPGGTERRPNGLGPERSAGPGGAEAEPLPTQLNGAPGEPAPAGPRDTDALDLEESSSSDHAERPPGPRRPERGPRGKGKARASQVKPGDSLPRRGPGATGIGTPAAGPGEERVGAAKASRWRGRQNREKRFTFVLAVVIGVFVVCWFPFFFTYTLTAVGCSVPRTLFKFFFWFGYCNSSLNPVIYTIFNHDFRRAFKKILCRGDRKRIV

[25] = biological target: ALK tyrosine kinase receptor (Homo sapiens) (UniProt Q9UM73); conditions: Compound concentration 1000.0 nM
[26] = biological target: Myosin light chain kinase, smooth muscle (Homo sapiens) (UniProt Q15746); conditions: Compound concentration 1000.0 nM
[27] = biological target: MAP/microtubule affinity-regulating kinase 4 (Homo sapiens) (UniProt Q96L34); conditions: Compound concentration 1000.0 nM
[28] = biological target: Interleukin-1 receptor-associated kinase 4 (Homo sapiens) (UniProt Q9NWZ3); conditions: Compound concentration 1000.0 nM
[29] = biological target: Aurora kinase C (Homo sapiens) (UniProt Q9UQB9); conditions: Compound concentration 1000.0 nM

Interleukin-1 receptor-associated kinase 4 (Homo sapiens), sequence (Q9NWZ3 whole entry): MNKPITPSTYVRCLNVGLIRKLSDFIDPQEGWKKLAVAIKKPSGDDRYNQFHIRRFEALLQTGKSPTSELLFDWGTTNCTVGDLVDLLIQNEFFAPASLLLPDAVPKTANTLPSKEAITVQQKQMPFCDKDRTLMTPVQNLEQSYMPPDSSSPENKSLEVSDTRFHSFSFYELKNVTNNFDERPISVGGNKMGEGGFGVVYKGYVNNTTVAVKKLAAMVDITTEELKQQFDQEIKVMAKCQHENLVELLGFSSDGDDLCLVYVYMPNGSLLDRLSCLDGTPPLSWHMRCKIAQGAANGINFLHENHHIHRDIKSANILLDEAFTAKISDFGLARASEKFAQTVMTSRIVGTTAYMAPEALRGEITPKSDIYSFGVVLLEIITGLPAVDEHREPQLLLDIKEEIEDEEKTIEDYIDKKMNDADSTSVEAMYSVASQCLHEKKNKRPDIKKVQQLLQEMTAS
Serine/threonine-protein kinase haspin (Homo sapiens), sequence (Q8TF76 whole entry): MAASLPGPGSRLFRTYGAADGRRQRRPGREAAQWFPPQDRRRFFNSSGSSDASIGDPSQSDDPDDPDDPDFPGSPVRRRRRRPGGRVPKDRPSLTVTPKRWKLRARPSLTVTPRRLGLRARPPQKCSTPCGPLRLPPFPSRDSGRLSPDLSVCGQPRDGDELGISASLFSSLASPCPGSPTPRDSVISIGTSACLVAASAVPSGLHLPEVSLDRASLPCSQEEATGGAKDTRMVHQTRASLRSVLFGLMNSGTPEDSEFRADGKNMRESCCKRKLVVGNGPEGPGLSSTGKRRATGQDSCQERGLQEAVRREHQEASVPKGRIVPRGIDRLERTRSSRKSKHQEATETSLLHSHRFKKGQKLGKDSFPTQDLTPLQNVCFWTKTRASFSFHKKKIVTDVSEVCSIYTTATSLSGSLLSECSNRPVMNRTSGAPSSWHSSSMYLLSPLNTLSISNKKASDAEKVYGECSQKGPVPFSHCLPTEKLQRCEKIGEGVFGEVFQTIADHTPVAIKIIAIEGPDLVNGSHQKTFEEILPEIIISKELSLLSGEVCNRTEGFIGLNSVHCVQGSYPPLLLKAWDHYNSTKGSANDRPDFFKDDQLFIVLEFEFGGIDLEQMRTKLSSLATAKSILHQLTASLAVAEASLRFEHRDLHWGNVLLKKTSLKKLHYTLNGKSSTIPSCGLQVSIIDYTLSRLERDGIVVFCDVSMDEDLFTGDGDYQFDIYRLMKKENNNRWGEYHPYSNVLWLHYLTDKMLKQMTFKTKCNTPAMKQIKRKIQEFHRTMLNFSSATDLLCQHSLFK
Phosphatidylinositol 4,5-bisphosphate 3-kinase catalytic subunit alpha isoform (Homo sapiens), P42336 [E545A], sequence (P42336 whole entry E545A, canonical isoform): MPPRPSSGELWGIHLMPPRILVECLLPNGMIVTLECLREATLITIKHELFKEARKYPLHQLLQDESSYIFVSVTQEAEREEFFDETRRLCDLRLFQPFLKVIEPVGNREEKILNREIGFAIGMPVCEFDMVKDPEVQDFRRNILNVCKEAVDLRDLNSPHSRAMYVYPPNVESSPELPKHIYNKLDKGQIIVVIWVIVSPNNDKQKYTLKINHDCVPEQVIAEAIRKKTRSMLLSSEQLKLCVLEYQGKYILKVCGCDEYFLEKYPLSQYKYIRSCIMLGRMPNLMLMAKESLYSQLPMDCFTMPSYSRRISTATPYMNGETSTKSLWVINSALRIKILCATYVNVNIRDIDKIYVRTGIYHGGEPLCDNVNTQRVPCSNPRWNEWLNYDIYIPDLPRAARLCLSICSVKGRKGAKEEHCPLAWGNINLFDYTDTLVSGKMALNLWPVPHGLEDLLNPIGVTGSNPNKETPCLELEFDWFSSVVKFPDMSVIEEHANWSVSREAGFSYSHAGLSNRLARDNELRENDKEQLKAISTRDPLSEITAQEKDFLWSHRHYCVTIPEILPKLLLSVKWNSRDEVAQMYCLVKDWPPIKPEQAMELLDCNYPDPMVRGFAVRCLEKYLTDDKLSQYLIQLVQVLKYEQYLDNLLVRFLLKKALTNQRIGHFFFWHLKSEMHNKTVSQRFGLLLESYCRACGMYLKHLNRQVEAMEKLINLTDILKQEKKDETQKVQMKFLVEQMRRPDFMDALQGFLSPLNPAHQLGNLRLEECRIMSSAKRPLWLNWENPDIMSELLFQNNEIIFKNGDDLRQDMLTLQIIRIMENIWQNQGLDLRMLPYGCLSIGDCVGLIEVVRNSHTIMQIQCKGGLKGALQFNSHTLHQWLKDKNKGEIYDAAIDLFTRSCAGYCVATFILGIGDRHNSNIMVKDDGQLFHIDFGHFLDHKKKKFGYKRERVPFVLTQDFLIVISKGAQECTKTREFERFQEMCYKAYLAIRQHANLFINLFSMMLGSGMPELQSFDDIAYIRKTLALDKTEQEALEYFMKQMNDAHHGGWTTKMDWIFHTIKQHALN
Cyclin-dependent kinase-like 1 (Homo sapiens), sequence (Q00532 whole entry): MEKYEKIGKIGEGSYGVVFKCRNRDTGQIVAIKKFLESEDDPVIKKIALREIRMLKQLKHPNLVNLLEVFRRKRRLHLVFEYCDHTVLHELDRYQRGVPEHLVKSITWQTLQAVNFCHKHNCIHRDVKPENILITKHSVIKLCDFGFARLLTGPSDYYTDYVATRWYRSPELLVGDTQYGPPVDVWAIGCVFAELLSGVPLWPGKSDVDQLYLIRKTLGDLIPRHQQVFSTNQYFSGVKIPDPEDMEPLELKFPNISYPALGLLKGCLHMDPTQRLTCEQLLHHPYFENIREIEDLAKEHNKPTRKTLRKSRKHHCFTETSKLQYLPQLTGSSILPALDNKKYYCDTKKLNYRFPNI
Myosin light chain kinase, smooth muscle (Homo sapiens), sequence (Q15746 whole entry): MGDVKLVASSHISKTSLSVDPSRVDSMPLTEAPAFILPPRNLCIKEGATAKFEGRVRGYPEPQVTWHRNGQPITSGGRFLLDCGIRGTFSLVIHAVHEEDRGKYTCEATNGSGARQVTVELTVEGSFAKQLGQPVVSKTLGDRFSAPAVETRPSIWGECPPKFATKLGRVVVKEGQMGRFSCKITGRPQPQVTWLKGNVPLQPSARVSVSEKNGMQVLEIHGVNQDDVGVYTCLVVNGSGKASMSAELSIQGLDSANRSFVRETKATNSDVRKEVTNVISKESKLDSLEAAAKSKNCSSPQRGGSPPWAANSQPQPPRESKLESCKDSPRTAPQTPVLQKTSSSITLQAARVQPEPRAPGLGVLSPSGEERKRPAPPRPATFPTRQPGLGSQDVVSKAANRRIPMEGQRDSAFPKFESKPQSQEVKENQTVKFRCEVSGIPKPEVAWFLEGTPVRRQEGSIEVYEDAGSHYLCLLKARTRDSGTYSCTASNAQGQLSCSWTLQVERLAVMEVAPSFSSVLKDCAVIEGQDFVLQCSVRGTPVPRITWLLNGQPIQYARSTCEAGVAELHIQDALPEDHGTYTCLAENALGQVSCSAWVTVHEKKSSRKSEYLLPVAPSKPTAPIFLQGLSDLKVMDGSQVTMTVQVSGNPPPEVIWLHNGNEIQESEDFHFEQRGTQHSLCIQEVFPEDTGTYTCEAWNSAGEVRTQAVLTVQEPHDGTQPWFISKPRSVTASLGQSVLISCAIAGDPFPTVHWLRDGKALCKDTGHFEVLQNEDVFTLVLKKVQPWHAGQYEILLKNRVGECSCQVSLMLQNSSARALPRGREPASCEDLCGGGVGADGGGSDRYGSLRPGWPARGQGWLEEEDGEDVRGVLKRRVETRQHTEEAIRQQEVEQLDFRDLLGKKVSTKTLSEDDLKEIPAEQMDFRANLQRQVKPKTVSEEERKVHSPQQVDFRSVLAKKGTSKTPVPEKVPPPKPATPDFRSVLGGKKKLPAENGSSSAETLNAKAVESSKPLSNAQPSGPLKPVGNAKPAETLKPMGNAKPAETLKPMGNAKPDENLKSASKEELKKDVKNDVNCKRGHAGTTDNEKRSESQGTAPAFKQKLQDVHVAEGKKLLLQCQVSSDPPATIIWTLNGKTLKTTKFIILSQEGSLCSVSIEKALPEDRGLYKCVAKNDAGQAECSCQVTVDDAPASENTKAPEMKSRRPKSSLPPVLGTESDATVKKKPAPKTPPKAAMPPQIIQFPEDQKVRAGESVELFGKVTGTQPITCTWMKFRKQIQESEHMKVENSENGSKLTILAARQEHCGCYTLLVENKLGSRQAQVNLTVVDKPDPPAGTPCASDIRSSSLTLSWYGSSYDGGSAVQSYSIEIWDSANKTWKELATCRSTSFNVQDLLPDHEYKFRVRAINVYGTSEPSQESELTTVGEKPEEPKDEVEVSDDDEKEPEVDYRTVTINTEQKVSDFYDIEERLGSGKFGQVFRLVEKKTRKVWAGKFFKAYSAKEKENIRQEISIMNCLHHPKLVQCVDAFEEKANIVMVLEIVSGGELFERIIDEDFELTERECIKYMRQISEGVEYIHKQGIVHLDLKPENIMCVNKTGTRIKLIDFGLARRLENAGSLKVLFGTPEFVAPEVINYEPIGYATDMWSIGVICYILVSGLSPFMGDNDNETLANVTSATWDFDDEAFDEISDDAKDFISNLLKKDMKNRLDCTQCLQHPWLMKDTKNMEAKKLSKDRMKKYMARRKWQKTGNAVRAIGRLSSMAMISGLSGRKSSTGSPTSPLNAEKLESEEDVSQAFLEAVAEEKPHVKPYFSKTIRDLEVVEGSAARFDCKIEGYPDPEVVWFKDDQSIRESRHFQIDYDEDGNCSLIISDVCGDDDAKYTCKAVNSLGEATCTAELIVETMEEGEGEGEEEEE
Tyrosine-protein kinase FRK (Homo sapiens), sequence (P42685 whole entry): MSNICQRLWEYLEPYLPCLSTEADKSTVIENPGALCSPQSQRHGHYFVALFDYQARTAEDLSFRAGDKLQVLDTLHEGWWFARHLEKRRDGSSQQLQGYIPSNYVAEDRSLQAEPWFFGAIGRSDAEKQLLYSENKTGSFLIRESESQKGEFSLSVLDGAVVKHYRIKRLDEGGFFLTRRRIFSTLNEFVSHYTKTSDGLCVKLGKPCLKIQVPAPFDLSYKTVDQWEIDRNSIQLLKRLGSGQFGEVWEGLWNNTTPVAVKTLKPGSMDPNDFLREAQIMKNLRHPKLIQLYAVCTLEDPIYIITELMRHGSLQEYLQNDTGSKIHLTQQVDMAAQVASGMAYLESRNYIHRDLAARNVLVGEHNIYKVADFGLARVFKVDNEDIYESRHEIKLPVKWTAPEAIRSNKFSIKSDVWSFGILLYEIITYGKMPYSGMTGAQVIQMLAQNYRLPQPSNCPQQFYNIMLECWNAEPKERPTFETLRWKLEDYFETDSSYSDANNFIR

Row | Compound | residual activity [1] [%] | % Inhibition of Control Specific Binding (Mean n=2) [2] [%] | residual activity [3] [%] | residual activity [4] [%] | residual activity [5] [%] | residual activity [6] [%] | residual activity [7] [%] | residual activity [8] [%] | residual activity [9] [%] | residual activity [10] [%] | residual activity [11] [%] | % Inhibition of Control Specific Binding (Mean n=2) [12] [%] | residual activity [13] [%] | residual activity [14] [%] | residual activity [15] [%] | residual activity [16] [%] | % Inhibition of Control Specific Binding (Mean n=2) [17] [%] | residual activity [18] [%] | residual activity [19] [%] | residual activity [20] [%] | further results
1 | CCCOc1ccc([C@H]2[C@H](C(=O)O)[C@@H](c3ccc4c(c3)OCO4)CN2CC(=O)Nc2c(CC)cccc2CC)cc1 [A-192621] | 93 | -11.2 | 100 | 92 | 89 | 90 | 79 | 84 | 92 | 100 | 70 | 3.2 | 55 | 100 | 81 | 71 | -2.8 | 62 | 63 | 68 | residual activity [21]: 93%; residual activity [22]: 66%; % Inhibition of Control Specific Binding (Mean n=2) [23]: 11.1%; % Inhibition of Control Specific Binding [24]: -2.4%; residual activity [25]: 100%; residual activity [26]: 85%; residual activity [27]: 97%; residual activity [28]: 76%; residual activity [29]: 91%
2 | CCCOc1ccc([C@@H]2[C@@H](C(=O)O)[C@H](c3ccc4c(c3)OCO4)CN2CC(=O)Nc2c(CC)cccc2CC)cc1 [A-1806262] | 95 | 3.7 | 94 | 92 | 91 | 100 | 84 | 74 | 92 | 89 | 82 | 3.1 | 72 | 100 | 80 | 89 | 13.4 | 99 | 89 | 78 | residual activity [21]: 88%; residual activity [22]: 77%; % Inhibition of Control Specific Binding (Mean n=2) [23]: 6%; % Inhibition of Control Specific Binding (Mean n=2) [24]: -7.1%; residual activity [25]: 100%; residual activity [26]: 100%; residual activity [27]: 100%; residual activity [28]: 100%; residual activity [29]: 94%
